Results on 16 compounds are retold here after patent US20060030615A1, “Progesterone receptor modulators comprising pyrrole-oxindole derivatives and uses thereof” (Wyeth, priority 2004, published 2006).

The target in one series is T1, progesterone receptor (Homo sapiens, UniProt P06401).
T1 construct: Effects of Progestins and Antiprogestins on Alkaline Phosphatase Activity in T47D cells; endogenous in cells; host or cells: T47D cells
T1 sequence (P06401 1-933): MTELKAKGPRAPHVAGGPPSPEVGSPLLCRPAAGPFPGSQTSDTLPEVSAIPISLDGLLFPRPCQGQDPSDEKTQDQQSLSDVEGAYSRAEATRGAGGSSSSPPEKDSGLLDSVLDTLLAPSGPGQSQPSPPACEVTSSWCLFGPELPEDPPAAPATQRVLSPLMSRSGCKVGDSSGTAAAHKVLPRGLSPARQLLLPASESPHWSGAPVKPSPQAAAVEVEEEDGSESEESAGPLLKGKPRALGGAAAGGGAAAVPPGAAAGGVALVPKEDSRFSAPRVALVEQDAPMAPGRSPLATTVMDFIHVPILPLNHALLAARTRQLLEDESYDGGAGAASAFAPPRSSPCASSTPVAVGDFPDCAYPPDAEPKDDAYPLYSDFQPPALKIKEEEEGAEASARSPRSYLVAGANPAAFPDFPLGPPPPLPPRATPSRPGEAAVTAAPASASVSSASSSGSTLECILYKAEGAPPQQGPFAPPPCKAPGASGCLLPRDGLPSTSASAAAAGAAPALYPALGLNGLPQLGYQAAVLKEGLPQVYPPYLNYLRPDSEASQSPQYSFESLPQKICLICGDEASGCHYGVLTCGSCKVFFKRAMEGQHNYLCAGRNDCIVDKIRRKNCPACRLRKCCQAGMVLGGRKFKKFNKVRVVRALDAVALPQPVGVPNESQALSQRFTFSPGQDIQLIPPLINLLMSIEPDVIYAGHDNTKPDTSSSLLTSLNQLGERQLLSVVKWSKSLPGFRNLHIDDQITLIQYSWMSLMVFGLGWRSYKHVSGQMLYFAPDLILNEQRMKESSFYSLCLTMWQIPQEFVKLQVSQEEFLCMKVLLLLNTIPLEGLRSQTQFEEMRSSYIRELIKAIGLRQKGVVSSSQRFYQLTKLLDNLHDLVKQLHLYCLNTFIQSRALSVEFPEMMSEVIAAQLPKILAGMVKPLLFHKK
The experiment in a line: T47D Cell Alkaline Phosphatase Assay. It counts as cell-based. The conditions noted are these: antagonist mode, T47D cells, in the presence of 1 nM progesterone, 24 hours. The method, then: A. Effects of Progestins and Antiprogestins on Alkaline Phosphatase Activity in T47D cells (T47D Alkaline Phosphatase Assay)
The molecules of the present invention are anticipated to be active in the antagonist mode in the T47D alkaline phosphatase assay at concentrations of 3 μM or lower.
Culture medium: DMEM:F12 (1:1) (GIBCO, BRL) supplemented with 5% (v/v) charcoal stripped fetal bovine serum (not heat-inactivated), 100 U/ml penicillin, 100 μg/ml streptomycin, and 2 mM GlutaMax (GIBCO, BRL).
Alkaline phosphatase assay buffer: I. 0.1M Tris-HCI, pH 9.8, containing 0.2% Triton X-100, 0.1M Tris-HCI, pH 9.8, containing 4 mM p-nitrophenyl phosphate (Sigma).
2. Cell Culture And Treatment:
Frozen T47D cells are thawed in a 37° C. water bath and diluted to 280,000 cells/ml in culture medium. To each well in a 96-well plate (Falcon, Becton Dickinson Labware), 180 μl of diluted cell suspension is added. Twenty μl of reference or test compounds diluted in the culture medium is then added to each well. When testing for progestin antagonist activity, reference antiprogestins or test compounds are added in the presence of 1 nM progesterone. The cells are incubated at 37° C. in a 5% CO2 humidified atmosphere for 24 hours. For high throughput screening, one concentration of each compound will be tested at 0.3 μg/ml. Based on an average molecular weight of 300 g/mol for the compounds in the library, the concentration is approximately 1 μM. Subsequently, active compounds will be tested in dose response assays to determine EC50 and IC50.
3. Alkaline Phosphatase Enzyme Assay:
At the end of treatment, the medium is removed from the plate. Fifty μl of assay buffer I is added to each well. The plates are shaken in a titer plate shaker for 15 min. Then 150 μl of assay buffer II is added to each well. Optical density measurements are taken at 5 min intervals for 30 min. at a test wavelength of 405 nm.
4. Analysis of Dose-Response Data.
For reference and test compounds, a dose response curve is generated for dose vs. the rate of enzyme reaction (slope). Square root-transformed data are used for analysis of variance and nonlinear dose response curve fitting for both agonist and antagonist modes. Huber weighting is used to down-weight the effects of outliers. EC50 or IC50 values are calculated from the retransformed values. JMP software (SAS Institute, Inc.) is used for both one-way analysis of variance and non-4 linear dose response analysis in both single dose and dose response studies.
Progesterone and trimegestone are reference progestins and RU486 is the reference antiprogestin. All reference compounds are run in full dose response curves and the EC50 and IC50 values are calculated.

Series [1] concerns rat uterine decidualization. The experiment in a line: Rat Decidualization Assay (mature ovariectomized rats). It counts as in vivo. The conditions noted are these: rat decidual assay, po. The method, then: B. Progestational and Antiprogestational Activity in Mature Ovariectomized Rats (Rat Decidualization Assay)
This assay is used to evaluate the effect of progestins and antiprogestins on rat uterine decidualization and compare the relative potencies of various test compounds.
Test compounds are dissolved in 100% ethanol and mixed with corn oil (vehicle). Stock solutions of the test compounds in oil (Mazola™) are then prepared by heating (˜80° C.) the mixture to evaporate ethanol. Test compounds are subsequently diluted with 100% corn oil or 10% ethanol in corn oil prior to the treatment of animals. No difference in decidual response was found when these two vehicles were compared. […]
Approximately 24 hr after the third injection, decidualization is induced in one of the uterine horns of anesthetized rats by scratching the antimesometrial luminal epithelium with a blunt 21 G needle. […] Approximately 24 hr following the final treatment, rats are sacrificed by CO asphyxiation and body weight measured. […]
In agonist mode, the increase in weight of the decidualized uterine horn is calculated by D-horn/C-horn and logarithmic transformation is used to maximize normality and homogeneity of variance. […] EC50 is calculated from the transformed value. […] IC50 is calculated from the retransformed value. […]

As to `CC[C@]1(C)C(=O)Nc2ccc(-c3ccc(C#N)n3C)cc21` (single isomer, unassigned), the IC50 (in general, the point on the concentration scale where inhibition reaches its midpoint) on progesterone receptor is 7.4 nM.

Take `CC[C@@]1(C)C(=O)Nc2ccc(-c3ccc(C#N)n3C)cc21` (single isomer, unassigned): at progesterone receptor, the IC50 stood at 3.2 nM.

As for `Cn1c(C#N)ccc1-c1ccc2c(c1)C(C)(C)C(=O)N2` [5-(3,3-dimethyl-2-oxo-2,3-dihydro-1H-indol-5-yl)-1-methyl-1H-pyrrole-2-carbonitrile], the IC50 on progesterone receptor turned out to be 10 nM. In addition, the ED50 in series [1] was found to be 0.2 mg/k.

For the compound `CN1C(=O)C(C)(C)c2cc(-c3ccc(C#N)n3C)ccc21` [1-methyl-5-(1,3,3-trimethyl-2-oxo-2,3-dihydro-1H-indol-5-yl)-1H-pyrrole-2-carbonitrile], the IC50 on progesterone receptor worked out at 13.3 nM.

As to `Cn1c(C#N)ccc1-c1ccc2c(c1)C1(CCCC1)C(=O)N2` [1-methyl-5-(2′-oxo-1′,2′-dihydrospiro[cyclopentane-1,3′-indol]-5′-yl)-1H-pyrrole-2-carbonitrile], the half-inhibitory concentration (IC50) on progesterone receptor was 30 nM.

In the case of `Cn1c(C#N)ccc1-c1ccc2c(c1)CC(=O)N2` [1-methyl-5-(2-oxo-2,3-dihydro-1H-indol-5-yl)-1H-pyrrole-2-carbonitrile], the IC50 on progesterone receptor is 20.4 nM.

As to `N#Cc1ccc(-c2ccc3c(c2)C2(CCCC2)C(=O)N3)[nH]1` [5-(1,2-Dihydro-2-oxospiro[cyclopentane-1,3-[3H]indol]-5-yl)-1H-pyrrole-2-carbonitrile], on progesterone receptor, the half-maximal inhibitory concentration (IC50) was 60 nM.

Take `CC[C@@H]1C(=O)Nc2ccc(-c3ccc(C#N)n3C)cc21` (single isomer, unassigned): the IC50 at progesterone receptor came out at 13.1 nM.

Regarding `CC[C@H]1C(=O)Nc2ccc(-c3ccc(C#N)n3C)cc21` (single isomer, unassigned), the IC50 on progesterone receptor was 6.1 nM.

As for `CCC1(CC)C(=O)Nc2ccc(-c3ccc(C#N)n3C)cc21` [5-(3,3-Diethyl-2-oxo-2,3-dihydro-1H-indol-5-yl)-1-methyl-1H-pyrrole-2-carbonitrile], the melting point (in general, the temperature of the solid-liquid transition) lay within 233 to 235 °C. At progesterone receptor, the IC50 was determined as 3.3 nM.

As for `CN1C(=O)C(C)(C)c2cc(-c3ccc(C#N)[nH]3)ccc21` [5-(1,3,3-trimethyl-2-oxo-2,3-dihydro-1H-indol-5-yl)-1H-pyrrole-2-carbonitrile], the IC50 on progesterone receptor was determined as 72.9 nM.

Take `CCC1C(=O)Nc2ccc(-c3ccc(C#N)n3C)cc21` (racemic) [5-(3-ethyl-2-oxo-2,3-dihydro-1H-indol-5-yl)-1-methyl-1H-pyrrole-2-carbonitrile]: the IC50 at progesterone receptor worked out at 5.7 nM.

For `Cn1c(C#N)ccc1-c1ccc2c(c1)C1(CC1)C(=O)N2` [1-methyl-5-(2′-oxo-1′,2′-dihydrospiro[cyclopropane-1,3′-indol]-5′-yl)-1H-pyrrole-2-carbonitrile], the IC50 on progesterone receptor came out at 8.1 nM.

In the case of `CC1(C)C(=O)Nc2ccc(-c3ccc(C#N)[nH]3)cc21` [5-(3,3-Dimethyl-2-oxo-2,3-dihydro-1H-indol-5-yl)-1H-pyrrole-2-carbonitrile], at progesterone receptor, the IC50 came to 27.2 nM.

Take `CC(C)(C)OC(=O)n1c(C#N)ccc1-c1ccc2c(c1)C1(CCCC1)C(=O)N2` [2-Cyano-5-(1,2-dihydro-2-oxospiro[cyclopentane-1,3-[3H]indol]-5-yl)-1H-pyrrole-1-carboxylic acid, tert-butyl ester]: the IC50 at progesterone receptor stood at 300 nM.

In the case of `Cn1c(C#N)ccc1-c1ccc2c(c1)C1(CCC1)C(=O)N2` [1-methyl-5-(2′-oxo-1′,2′-dihydrospiro[cyclobutane-1,3′-indol]-5′-yl)-1H-pyrrole-2-carbonitrile], the IC50 at progesterone receptor is 1 nM.
